Test results as given in patent US6620807B1, “Pyridobenzodiazepine and pyridobenzoxazepine carboxyamide vasopressin agonists” (Wyeth, priority 1999, dated 2003).

Biological target: T1, Vasopressin V2 (Rattus norvegicus, UniProt Q00788)
T1 construct: Vasopressin V2 Agonist Effects of Test Compounds in Normal Conscious Water-loaded Rats; from tissue; host or cells: whole animal: conscious water-loaded Sprague-Dawley rats (V2 receptors of the kidney collecting ducts)
Assay: Vasopressin V2 agonist effects of test compounds in normal conscious water-loaded rats
Type: in vivo
Details: oral dose of 10 mg/Kg, water-loaded Sprague-Dawley (CD) rats; for Changes in Urinary Osmolality: osmolality changes expressed as percent of control, urine collected for four hours; for Urine Volume (% decrease): percent decrease in urine volume vs. control, urine collected for four hours after dosing
From the text: Vasopressin V2 Agonist Effects of Test Compounds in Normal Conscious Water-loaded Rats:
Male or female normotensive Sprague-Dawley rats (Charles River Laboratories, Inc., Kingston, N.Y.) of 350-500 g body weight were supplied with standard rodent diet (Purina Rodent Lab. Chow 5001) and water ad libitum. On the day of test, rats were placed individually into metabolic cages equipped with devices to separate the feces from the urine and containers for collection of urine. A test compound or a reference agent was given at an oral dose of 10 mg/Kg in a volume of 10 mL/Kg. The vehicle used was 20% dimethylsulfoxide (DMSO) in 2.5% preboiled corn starch. Thirty minutes after dosing the test compound, rats were gavaged with water at 30 mL/Kg into the stomach using a feeding needle. During the test, rats were not provided with water or food. Urine was collected for four hours after dosing of the test compound. At the end of four hours, urine volume was measured. Urinary osmolality was determined using a Fiske One-Ten Osmometer (Fiske Associates, Norwood, Mass., 02062) or an Advanced CRYOMATIC Osmometer, Model 3C2 (Advanced Instruments, Norwood, Mass.). Determinations of Na^+, K^+ and Cl^− ion were carried out using ion specific electrodes in a Beckman SYNCHRON EL-ISE Electrolyte System analyzer. The urinary osmolality should increase proportionally. In the screening test, two rats were used for each compound. If the difference in the urine volume of the two rats was greater than 50%, a third rat was used.

T1 sequence (Q00788 whole entry): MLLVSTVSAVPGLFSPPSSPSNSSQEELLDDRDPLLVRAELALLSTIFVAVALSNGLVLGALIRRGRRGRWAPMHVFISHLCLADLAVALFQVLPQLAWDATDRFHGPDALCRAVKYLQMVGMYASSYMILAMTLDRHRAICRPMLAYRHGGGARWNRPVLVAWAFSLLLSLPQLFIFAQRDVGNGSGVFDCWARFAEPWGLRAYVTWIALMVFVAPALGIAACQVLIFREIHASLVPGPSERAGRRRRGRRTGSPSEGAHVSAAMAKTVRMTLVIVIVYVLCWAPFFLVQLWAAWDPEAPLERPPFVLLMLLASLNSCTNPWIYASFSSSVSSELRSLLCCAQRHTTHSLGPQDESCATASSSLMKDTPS

O=C(c1ccc2ncsc2c1)N1Cc2cccnc2Nc2ccccc21 [Example 5]
Changes in Urinary Osmolality: 78% of control | Urine Volume (% decrease): 31 % decrease

Cn1ccc2cc(C(=O)N3Cc4cccnc4Oc4ccccc43)ccc21 [Example 6]
Changes in Urinary Osmolality: 35% of control | Urine Volume (% decrease): 21 % decrease

O=C(c1ccc2nonc2c1)N1Cc2cccnc2Nc2ccccc21 [Example 4, Benzo[1,2,5]oxadiazol-5-yl-(5,11-dihydro-benzo[b]pyrido [2.3-e][1,4]Diazepin-6-yl)-methanone]
Urine Volume (% decrease): 13 % decrease

O=C(c1ccc2c(c1)OCO2)N1Cc2cccnc2Nc2ccccc21 [Example 2, Benzo [1,3]Dioxol-5-yl-(5,11-dihydro-benzo[b]pyrido [2.3-e][1,4]Diazepin-6-yl)-mothanone]
Changes in Urinary Osmolality: 247% of control | Urine Volume (% decrease): 61 % decrease

Cn1ccc2cc(C(=O)N3Cc4cccnc4Nc4ccccc43)ccc21 [Example 1]
Changes in Urinary Osmolality: 159% of control | Urine Volume (% decrease): 74 % decrease

O=C(c1ccc2c(c1)CCO2)N1Cc2cccnc2Nc2ccccc21 [Example 3, (5,11-Dihydro-benzo[b]pyrido [2.3-e][1,4]Diazepin-6-yl)-(2,3-dihydro-benzofuran-5-yl)-methanone]
Changes in Urinary Osmolality: 54% of control | Urine Volume (% decrease): 29 % decrease
